According to patent US20210323918A1, “COMPOSITIONS AND METHODS FOR SUPPRESSING AND/OR TREATING A GROWTH RELATED DISEASE AND/OR A CLINICAL CONDITION THEREOF” (CK Biotech Inc., priority 2018, published 2021):

What was measured:
[1] = tested on: C28/I2 cells; test: Protein and mRNA expression in C28/I2 chondrocyte cells; format: cell-based, human
Description: Cell culture and reagents. The mouse chondrogenic cell line, ATDC5, was obtained from the RIKEN Cell Batik. The human juvenile costal chondrocyte cell line, C28/I2, was provided by Dr. W. U. Kim (Catholic University, Korea). HEK293-TOP cells (HEK293 cells containing the chromosomally incorporated TOPFlash gene) were provided by Dr. S. Oh (Kuk Min University, Korea). ATDCS cells were maintained in DMEM/F12 (1:1) (Gibco, Grand Island, N.Y.) supplemented with 5% FBS (Gibco). To induce hypertrophic differentiation, ATDC5 cells were incubated with insulin-transferrin-sodium selenite (ITS) supplement (Gibco) in three-dimensional alginate beads for 3 days, as previously described. See e.g., Kawasaki Y. et al. (2008), Phosphorylation of GSK-3beta by cGMP-dependent protein kinase II promotes hypertrophic differentiation of murine chondrocytes. J CLIN INVEST 118: 2506-2515. C28/I2 and HEK293-TOP cells were maintained in DMEM (Gibco) containing 10% FBS. All chemicals were dissolved in dimethyl sulfoxide (DMSO; Sigma-Aldrich, St Louis, Mo.) for the in vitro studies. For E2 (17β-estradiol; Sigma-Aldrich) treatment, cells were cultured in phenol red-free DMEM/F12 with 5% charcoal-stripped FBS for 24 hours followed by serum-free medium for 24 hours before the experiment. The PTD-DBMP was synthesized by Peptide 2.0 Inc (Chantilly, Va.).
Immunocytochemistry. ATDCS or C28/I2 cells were seeded on glass coverslip in 12-well culture plates. The cells were washed with PBS and fixed with 4% PFA at room temperature for 15 minutes. After permeabilization with 0.1% triton-X-100 for 15 minutes and blocking with 5% BSA for 1 hour, the cells were incubated with primary antibodies specific for β-catenin (1:100) or CXXC5 l (1:200) at 4° C. overnight. […]
Immunoblot analyses. […] Immunoblot bands were analyzed using Multi-Gauge V3.0 software (Fujifilm). Points of interest (POIs) from immunoblot bands were marked and quantified using densitometry, and the background signals were subtracted from respective immunoblot signals. […]
Reverse transcription and quantitative real-time PCR. […]

[2] = biological target: T1, CXXC5-DVL interaction (Homo sapiens, UniProt O14640); test: In vitro CXXC5-DVL binding assay (FITC-tagged PTD-DBMP on DVL PDZ domain); conditions: from dose-response curve, FIG. 4B
T1 construct: 5 mg/ml purified DVL PDZ domain was incubated in each well
T1 sequence (O14640 251-323 limits assumed): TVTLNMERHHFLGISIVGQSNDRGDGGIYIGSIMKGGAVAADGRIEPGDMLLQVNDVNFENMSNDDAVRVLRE

Compound	expression of CXXC5 ([1]; 100 nM, 0-72 hours, FIG. 2A)	β-catenin level ([1]; 100 nM, following 24 hours)	mRNA levels of chondrogenic markers ([1]; 1 μM, 3 days, alginate beads, FIG. 11C)	IC50 [2] [nM]
17β-estradiol [Compound E2]	induced expression of CXXC5 in a time-dependent manner	reduced	–	–
CO/N=C1/C(=C2/C(=O)Nc3cc(Cl)c(Cl)cc32)Nc2ccccc21 [KY19382, 5,6-dichloroindirubin-3′-methoxime]	–	–	upregulated	19
